In test [1] the target is T1, (His)6-tagged α8/β8 thermosome (Ht thermosome, αK144Ht) (Thermoplasma acidophilum, UniProt P48424+P48425).
T1 construct: gene thsA; full-length alpha with internal His6 inserted after Lys144, untagged beta; co-expressed in E. coli; α8/β8 hexadecamer, about 960 kDa
As to the kind of experiment: coupled enzymatic steady-state ATPase assay. It counts as biochemical. Particulars: 55 °C; tighter site of a two-site fit; read-out: KM1.

The target of test [2] is T2, thermosome α subunit with a (His)6-tag downstream Lys144 (αK144Ht) (Thermoplasma acidophilum, UniProt P48424 1-545).
T2 construct: thermosome α subunit, Thermoplasma acidophilum, P48424; synthetic gene (Invitrogen) with six histidines inserted downstream of Lys144, in the loop between beta sheet β4 and alpha helix α6; Eight copies stand in the α8/β8 hexadecamer; also called K144-(His)6 α-subunit; (His)6-tagged α subunit; source: E. coli BL21(DE3) Codon Plus-RIL, co-expressed with the β subunit from the construct …
T2 sequence: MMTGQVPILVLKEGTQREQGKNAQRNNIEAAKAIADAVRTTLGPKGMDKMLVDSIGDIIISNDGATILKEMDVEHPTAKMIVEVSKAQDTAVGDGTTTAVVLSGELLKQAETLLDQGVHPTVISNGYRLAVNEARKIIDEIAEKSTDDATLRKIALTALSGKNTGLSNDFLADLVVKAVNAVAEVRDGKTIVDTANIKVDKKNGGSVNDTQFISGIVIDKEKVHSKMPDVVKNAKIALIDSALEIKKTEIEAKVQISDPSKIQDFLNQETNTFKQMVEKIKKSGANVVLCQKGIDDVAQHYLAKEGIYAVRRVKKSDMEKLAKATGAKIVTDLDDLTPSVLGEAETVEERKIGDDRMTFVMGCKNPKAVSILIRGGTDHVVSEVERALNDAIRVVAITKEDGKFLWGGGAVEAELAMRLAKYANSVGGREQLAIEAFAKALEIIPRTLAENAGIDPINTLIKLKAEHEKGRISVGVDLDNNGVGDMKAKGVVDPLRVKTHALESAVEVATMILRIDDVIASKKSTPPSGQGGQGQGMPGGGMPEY
As to the kind of experiment: SEC; peak from the affinity column run on Superose 6 (or HiLoad 26/600 Superdex 200) in 25 mM TrisHCl, 150 mM NaCl, 5 mM EDTA pH 7.5, room temperature; single peak of about 960 kDa to 1 MDa (hexadecamer); SDS-PAGE of the peak; subunits co-expressed and co-purified. As to conditions: both partners purified. On the technique in general: In gel filtration, larger molecules generally elute earlier.

Turning to `Nc1ncnc2c1ncn2[C@@H]1O[C@H](COP(=O)(O)OP(=O)(O)OP(=O)(O)O)[C@@H](O)[C@H]1O` [ATP], in test [1], the Km came to 15 µM.

B1: thermosome β subunit (natural protein, Thermoplasma acidophilum)
chain: MIAGQPIFILKEGTKRESGKDAMKENIEAAIAISNSVRSSLGPRGMDKMLVDSLGDIVITNDGVTILKEMDVEHPAAKMMVEVSKTQDSFVGDGTTTAVIIAGGLLQQAQGLINQNVHPTVISEGYRMASEEAKRVIDEISTKIGADEKALLLKMAQTSLNSKSASVAKDKLAEISYEAVKSVAELRDGKYYVDFDNIQVVKKQGGAIDDTQLINGIIVDKEKVHPGMPDVVKDAKIALLDAPLEIKKPEFDTNLRIEDPSMIQKFLAQEENMLREMVDKIKSVGANVVITQKGIDDMAQHYLSRAGIYAVRRVKKSDMDKLAKATGASIVSTIDEISSSDLGTAERVEQVKVGEDYMTFVTGCKNPKAVSILVRGETEHVVDEMERSITDSLHVVASALEDGAYAAGGGATAAEIAFRLRSYAQKIGGRQQLAIEKFADAIEEIPRALAENAGLDPIDILLKLRAEHAKGNKTYGINVFTGEIEDMVKNGVIEPIRVGKQAIESATEAAIMILRIDDVIATKSSSSSSNPPKSGSSSESSED
notes: thermosome β subunit, Thermoplasma acidophilum, P48425; untagged; Eight copies stand in the α8/β8 hexadecamer; also called un-tagged β-subunit; source: E. coli BL21(DE3) Codon Plus-RIL, co-expressed in tandem with the α subunit (αK144HTTherm or pETTherm α/β); in lysate, then purified with the complex
For B1, the “stoichiometry N” value in test [2] was 1 α:β ratio.

(Values after article PMC4746591, “Internal (His)6-tagging delivers a fully functional hetero-oligomeric class II chaperonin in high yield” (Scientific Reports, 2016).)
